According to ChEMBL document CHEMBL1136704, “3-amino-4-sulfonylpyridinone acetamide and related pyridothiadiazine thrombin inhibitors” (Bioorg Med Chem Lett, 2003):

Assays:
[1] = Protein binding activity of compound in human plasma; % Free; assay type: ADME, cell-free
Homo sapiens = organism: Homo sapiens; assay: Anticoagulant potency, activated partial thromboplastin time assay; assay type: functional
Serine protease 1 = Serine protease 1 (Homo sapiens, UniProt P07477); assay: Inhibitory activity against human trypsin
Prothrombin = Prothrombin (Homo sapiens, UniProt P00734); assay: Inhibition of human thrombin
Rattus norvegicus = organism: Rattus norvegicus; assay: Final plasma concentration in the rat ferric chloride thrombosis model; conditions: in vivo
[2] = Cmax value in dog; assay type: ADME, organism-based, Canis lupus familiaris; conditions: in vivo
[3] = Pharmacokinetic property (Area under curve); assay type: ADME
[4] = Half life period was determined; conditions: dog
[5] = Cmax value in dogs after oral administration at 1 mg/kg; assay type: ADME, organism-based, Canis lupus familiaris; set-up: dose 1 mg/kg, route oral; conditions: dog, in vivo
[6] = Pharmacokinetic property in dogs after oral administration at 1 mg/kg; assay type: ADME, organism-based, Canis lupus familiaris; set-up: dose 1 mg/kg, route oral; conditions: dog, in vivo
[7] = Half life period in dogs after oral administration at 1 mg/kg; assay type: ADME, organism-based, Canis lupus familiaris; set-up: dose 1 mg/kg, route oral; conditions: dog, in vivo

Serine protease 1, sequence (P07477 whole entry): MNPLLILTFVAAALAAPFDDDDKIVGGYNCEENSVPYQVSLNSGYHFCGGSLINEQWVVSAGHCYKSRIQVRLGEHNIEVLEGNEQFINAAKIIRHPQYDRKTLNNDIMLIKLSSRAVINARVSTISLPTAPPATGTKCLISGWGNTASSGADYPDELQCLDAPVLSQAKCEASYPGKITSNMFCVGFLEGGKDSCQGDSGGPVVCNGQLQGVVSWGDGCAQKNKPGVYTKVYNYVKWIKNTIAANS

| SMILES | Free [1] [%] | Ki (Serine protease 1) [µM] | Cmax [5] [nM] | AUC [6] [µM·h] | half-life [7] [h] | Concentration (Homo sapiens) [µM] | Ki (Prothrombin) [µM] | concentration (Rattus norvegicus) [nM] | Cmax [2] [nM] | AUC [3] [µM·h] | half-life [4] [h] |
| --- | --- | --- | --- | --- | --- | --- | --- | --- | --- | --- | --- |
| Cc1nc(N)ccc1CNC(=O)Cn1c(C)cc(S(=O)(=O)CC2CC2)c(N)c1=O | 70 | 1.9 | – | – | – | 0.4 | 0.0018 | 550 | 370 | 0.8 | 1.1 |
| Cc1nc(N)ccc1CNC(=O)Cn1c(C)cc2c(c1=O)NCN(C1CCC1)S2(=O)=O | – | 6.3 | – | – | – | 1.11 | – | – | – | – | – |
| Cc1nc(N)ccc1CNC(=O)Cn1c(C)cc2c(c1=O)NCN(CC1CCC1)S2(=O)=O | – | 1.6 | – | – | – | 0.92 | – | – | – | – | – |
| Cc1nc(N)ccc1CNC(=O)Cn1c(C)cc(S(=O)(=O)c2cccs2)c(N)c1=O | 40 | 0.34 | – | – | – | 0.39 | 0.0017 | 430 | – | – | – |
| Cc1nc(N)ccc1CNC(=O)Cn1c(C)cc(S(=O)(=O)CC2CCCC2)c(N)c1=O | 29 | 0.63 | – | – | – | 0.4 | 0.0012 | 530 | – | – | – |
| Cc1ccc(S(=O)(=O)c2cc(C)n(CC(=O)NCc3ccc(N)nc3C)c(=O)c2N)cc1 | – | 0.8 | – | – | – | – | 0.094 | – | – | – | – |
| Cc1nc(N)ccc1CNC(=O)Cn1c(C)cc(S(=O)(=O)Cc2ccccc2)c(N)c1=O | 22 | 1.6 | 450 | 0.62 | 1.05 | 0.47 | – | – | – | – | – |
| Cc1nc(N)ccc1CNC(=O)Cn1c(C)cc2c(c1=O)NCN(C1CC1)S2(=O)=O | – | 10 | – | – | – | 0.75 | – | – | – | – | – |
| Cc1nc(N)ccc1CNC(=O)Cn1c(C)cc(S(=O)(=O)c2ccccc2)c(N)c1=O | 19 | 0.5 | – | – | – | 0.66 | 0.0038 | 570 | – | – | – |
| Cc1nc(N)ccc1CNC(=O)Cn1c(C)cc(S(=O)(=O)C2CC2)c(N)c1=O | – | 2.8 | – | – | – | 1.64 | 0.017 | – | – | – | – |
| Cc1nc(N)ccc1CNC(=O)Cn1c(C)cc(S(=O)(=O)CC2CCC2)c(N)c1=O | 45 | 0.55 | – | – | – | 0.23 | 0.0002 | 680 | 570 | 2.58 | 0.783 |
| Cc1nc(N)ccc1CNC(=O)Cn1c(C)cc2c(c1=O)NCN(CC1CC1)S2(=O)=O | 25 | 6.1 | – | – | – | 0.79 | 0.0021 | – | 590 | 2.14 | 2.27 |

Continued, in another order:

| Free [1] [%] | Ki (Serine protease 1) [µM] | Cmax [5] [nM] | AUC [6] [µM·h] | half-life [7] [h] | SMILES | Concentration (Homo sapiens) [µM] | Ki (Prothrombin) [µM] | concentration (Rattus norvegicus) [nM] | Cmax [2] [nM] | AUC [3] [µM·h] | half-life [4] [h] |
| --- | --- | --- | --- | --- | --- | --- | --- | --- | --- | --- | --- |
| 53 | 1 | – | – | – | Cc1nc(N)ccc1CNC(=O)Cn1c(C)cc(S(=O)(=O)NCC2CC2)c(N)c1=O | 0.75 | – | – | – | – | – |
| – | 2.9 | – | – | – | Cc1nc(N)ccc1CNC(=O)Cn1c(C)cc(S(=O)(=O)NC2CC2)c(N)c1=O | 0.85 | – | – | – | – | – |
| 23 | 0.74 | – | – | – | Cc1nc(N)ccc1CNC(=O)Cn1c(C)cc(S(=O)(=O)NCC2CCC2)c(N)c1=O | 0.47 | 0.00075 | 640 | – | – | – |
| 38 | 0.26 | – | – | – | Cc1nc(N)ccc1CNC(=O)Cn1c(C)cc(S(=O)(=O)C2CCCCC2)c(N)c1=O | 0.75 | 0.003 | 650 | – | – | – |
| 45 | 1.1 | – | – | – | Cc1nc(N)ccc1CNC(=O)Cn1c(C)cc(S(=O)(=O)NC2CCC2)c(N)c1=O | 0.35 | – | – | – | – | – |
